From article PMC2600596 (European journal of pharmacology, 2008)

Tests used:
[1] = target: T1, hMOR (human mu opioid receptor) (Homo sapiens, UniProt P35372); assay type: cell-based
[2] = target: T1, hMOR (human mu opioid receptor); assay type: binding
hMOR = conditions: pH 7.5; cited from earlier work
mu opioid receptor = assay type: binding; conditions: whole CHO cells, data not shown

T1 sequence (P35372 whole entry): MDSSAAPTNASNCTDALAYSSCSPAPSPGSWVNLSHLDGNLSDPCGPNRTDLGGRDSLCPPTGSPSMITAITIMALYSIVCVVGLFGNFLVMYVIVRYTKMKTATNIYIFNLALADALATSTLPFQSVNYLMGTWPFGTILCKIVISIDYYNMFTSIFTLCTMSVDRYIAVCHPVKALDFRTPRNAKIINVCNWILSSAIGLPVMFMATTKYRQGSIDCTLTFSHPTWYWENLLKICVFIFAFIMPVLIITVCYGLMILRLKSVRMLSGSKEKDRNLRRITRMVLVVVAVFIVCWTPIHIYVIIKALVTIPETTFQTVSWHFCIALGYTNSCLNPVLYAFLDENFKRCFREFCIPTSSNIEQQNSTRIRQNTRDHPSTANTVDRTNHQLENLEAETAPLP

SMILES	Imax (maximum percent inhibition of [3H]-cAMP accumulation) [1] [%]	Hill Slope [2]	Ki ([2]; pH 7.4) [nM]	Ki (hMOR) [nM]	[3H]-naloxone radioligand binding displaced (mu opioid receptor)
C[C@@H](NC(=O)[C@@H](N)Cc1ccc(O)cc1)C(=O)NCC(=O)N(C)[C@@H](Cc1ccccc1)C(=O)NCCO [DAMGO, [D-Ala^2, N-Me-Phe^4, Gly^5-ol]-enkephalin]	88.8	−0.85			
COC(=O)/C=C/C(=O)N[C@@H]1CC[C@@]2(O)[C@H]3Cc4ccc(O)c5c4[C@@]2(CCN3CC2CC2)[C@H]1O5 [β-FNA, β-funaltrexamine]		−1.01	1.85	0.3	
Oc1ccc2c3c1O[C@H]1c4[nH]c5ccccc5c4C[C@@]4(O)[C@@H](C2)N(CC2CC2)CC[C@]314 [Naltrindole, naltrindole]		−0.99		6.3	
C=CC[N+]1(C)CC[C@]23c4c5ccc(O)c4O[C@H]2C(=O)CC[C@@]3(O)[C@H]1C5 (stereo partly shown) [naloxone methiodide]					More than 94%
Oc1ccc2c3c1O[C@H]1c4[nH]c5c(c4C[C@@]4(O)[C@@H](C2)N(CC2CC2)CC[C@]314)C[C@@]1(O)[C@H]2Cc3ccc(O)c4c3[C@@]1(CCN2CC1CC1)[C@H]5O4 [nor-BNI, nor-binaltorphimine]		−0.99		21	
